Experimental data from US6060516A, “N^1 -propargylhydrazines, N^2 -propargylhydrazines and their analogs for the treatment of depression, anxiety and neurodegeneration” (CV Technologies, Inc., priority 1998, dated 2000).

Legend:
MAO-A = MAO-A inhibition ex vivo in DSP-4 treated mice (brain); parameters: species or system mouse
Experimental: The compounds were evaluated for ex vivo monoamine oxidase-A inhibiting activity using the radiochemical procedure of Lyles, G. A. and Callingham, B. A. (1982). […] Biochem. Pharmacol. 31: 1417-1424. Radiolabelled 5-hydroxytryptamine was used as a substrate for monoamine oxidase-A. The compounds of interest were either injected intraperitonealy in DMSO or administered by gavage in water for various periods. The animals were killed by decapitation and the brains and livers immediately removed and frozen until assayed for monoamine oxidase-A activity. Tissues were homogenized and appropriately diluted in buffer prior to incubation. Incubations proceeded at 37° C. for 10 minutes. Incubation was terminated by the addition of acid and the radiolabelled product (5-hydroxyindoleacetaldehyde and 5-hydroxyindoleacetic acid) was extracted and quantified by liquid scintillation counting procedures. Incubations were done in triplicate and incubations containing phenelzine were included for comparison. The percent inhibition of monoamine oxidase-A activity compared to controls containing no drug was calculated.
Neuroprotectant activity was evaluated by examining the prevention of DSP-4 induced noradrenaline depletion in mouse hippocampus as described in Yu, P. H., Davis, B. A., Fang, J. and Boulton, A. A. (1994), Neuroprotective effect of some monoamine oxidase-B inhibitors against DSP-4 induced noradrenaline depletion in the mouse hippocampus, J. Neurochem. 63: 1820-1828. Briefly, mice were injected (i.p.) with either 20% DMSO or potential neuroprotectants (10 mg/kg in 20% DMSO). One hour later they were injected with either water or DSP-4 (50 mg/kg in water). One week later the mice were killed and the brains removed and the hippocampus dissected out. The hippocampus was frozen and saved for estimation of noradrenaline and other aminergic neurotransmitters and their metabolites as in Sloley, B. D. and Goldberg J. I. (1991), Determination of γ-glutamyl conjugates of monoamines by means of high-performance liquid chromatography with electrochemical detection and application to gastropod tissues, J. Chromatog. 567: 49-56. The rest of the brain was frozen and retained for estimation of monoamine oxidase activities ex vivo as described earlier.

PC12 cells = test: PC12 neurite outgrowth (neurotrophic effect); format: cell-based; conditions: for Index of Neurite Outgrowth: seven days
Experimental: The effects of CVT-P040 on neurite outgrowth in cell culture were investigated using an established PC 12 pheochromocytoma cell culture. The effects of CVT-P040 and nerve growth factor on neurite outgrowth were estimated using the method described by Rydel, R. E and Greene, L. A.(1987), Acidic and basic fibroblast growth factors promote stable neurite outgrowth and basic neuronal differentiation in cultures of PC12 cells, J. Neuroscience 7: 3639-3653. Briefly, PC12 cells were seeded and maintained in 100 cm^2 tissue culture dishes at 37° C. in RPMI1640 media containing 1% antibiotics, 10% heat inactivated horse serum and 5% fetal bovine serum in a water saturated atmosphere of 95% air and 5% CO2. The cells were mechanically dislodged and plated into 35 mm collagen-coated tissue culture dishes containing a total of 2.0 ml complete medium at a density of […]. The medium was changed 3 times/week. Cellular responses to CVT-P040 and nerve growth factor (NGF) were determined by counting the number of PC12 cells containing processes. Photographs of the cells were taken after seven days treatment. Two cell fields were chosen in each dish and the photographs developed and printed. […] The neurite index was calculated using the following formula; Neurite Index=total neurite score (ΣS)/ total cell number (ΣN); ΣS=S1×N+S2×N +S3×N+S4×N, where N is the number of cells in each cell field.

[1] = tested on: DSP-4 induced noradrenaline depletion in mouse hippocampus; test: Prevention of DSP-4 induced noradrenaline depletion in mouse hippocampus; format: in vivo; conditions: 10 mg/kg then DSP-4 50 mg/kg; saline control experiment

Structure (SMILES)	MAO-A % Inhibition (MAO-A; 10 mg/kg i.p. then DSP-4 50 mg/kg, 20% DMSO control experiment)	preference for MAO-A inhibition (MAO-A; DSP-4 experiment, 10 mg/kg, in words)	neurite index on coadministration with NGF (PC12 cells; CVT-P040 100 μM with 0.3 or 1.0 ng/ml NGF, against NGF alone, in words)	Index of Neurite Outgrowth (PC12 cells; CVT-P040 100 μM with NGF 0.1 ng/ml)	Index of Neurite Outgrowth (PC12 cells; CVT-P040 100 μM with NGF 0.3 ng/ml)	Index of Neurite Outgrowth (PC12 cells; CVT-P040 100 μM with NGF 1.0 ng/ml)	neurite outgrowth in PC12 cells (PC12 cells; CVT-P040 100 μM, in words)	Index of Neurite Outgrowth (PC12 cells; CVT-P040 100 μM)	MAO-A % Inhibition (MAO-A; 10 mg/kg then DSP-4 50 mg/kg, saline control experiment)	% NA Restoration [1]	NA [1]
C#CCN(N)CCc1ccccc1 [CVT-P040, N^1 -propargylphenelzine]	57.9 ± 2.9%	strong preference for MAO-A inhibition	increased the neurite index above those cultures receiving 0.3 or 1.0 ng/ml NGF alone	0.55 ± 0.03	0.97 ± 0.06	1.53 ± 0.07	increased neurite outgrowth in PC12 cells	0.35 ± 0.03	–	–	–
C#CCN(CCc1ccccc1)NC(C)=O [CVT-P041, N^1 -propargyl-N^2 -acetylphenelzine]	–	–	–	–	–	–	–	–	4.3 ± 6.2%	-43.2%	168 ± 31 ng/g
